Data published in ChEMBL document CHEMBL3407416, “Discovery of (R)-8-(1-(3,5-difluorophenylamino)ethyl)-N,N-dimethyl-2-morpholino-4-oxo-4H-chromene-6-carboxamide (AZD8186): a potent and selective inhibitor of PI3Kβ and PI3Kδ for the treatment of PTEN-deficient cancers” (J Med Chem, 2015).

How the values were obtained:
[1] = biological target: T1, Phosphatidylinositol 4,5-bisphosphate 3-kinase catalytic subunit alpha isoform (Homo sapiens, UniProt P42336); test: Inhibition of human recombinant PI3Kalpha using PIP2 by Kinase-Glo Plus assay
Target sequence in this assay (P42336 whole entry, canonical isoform): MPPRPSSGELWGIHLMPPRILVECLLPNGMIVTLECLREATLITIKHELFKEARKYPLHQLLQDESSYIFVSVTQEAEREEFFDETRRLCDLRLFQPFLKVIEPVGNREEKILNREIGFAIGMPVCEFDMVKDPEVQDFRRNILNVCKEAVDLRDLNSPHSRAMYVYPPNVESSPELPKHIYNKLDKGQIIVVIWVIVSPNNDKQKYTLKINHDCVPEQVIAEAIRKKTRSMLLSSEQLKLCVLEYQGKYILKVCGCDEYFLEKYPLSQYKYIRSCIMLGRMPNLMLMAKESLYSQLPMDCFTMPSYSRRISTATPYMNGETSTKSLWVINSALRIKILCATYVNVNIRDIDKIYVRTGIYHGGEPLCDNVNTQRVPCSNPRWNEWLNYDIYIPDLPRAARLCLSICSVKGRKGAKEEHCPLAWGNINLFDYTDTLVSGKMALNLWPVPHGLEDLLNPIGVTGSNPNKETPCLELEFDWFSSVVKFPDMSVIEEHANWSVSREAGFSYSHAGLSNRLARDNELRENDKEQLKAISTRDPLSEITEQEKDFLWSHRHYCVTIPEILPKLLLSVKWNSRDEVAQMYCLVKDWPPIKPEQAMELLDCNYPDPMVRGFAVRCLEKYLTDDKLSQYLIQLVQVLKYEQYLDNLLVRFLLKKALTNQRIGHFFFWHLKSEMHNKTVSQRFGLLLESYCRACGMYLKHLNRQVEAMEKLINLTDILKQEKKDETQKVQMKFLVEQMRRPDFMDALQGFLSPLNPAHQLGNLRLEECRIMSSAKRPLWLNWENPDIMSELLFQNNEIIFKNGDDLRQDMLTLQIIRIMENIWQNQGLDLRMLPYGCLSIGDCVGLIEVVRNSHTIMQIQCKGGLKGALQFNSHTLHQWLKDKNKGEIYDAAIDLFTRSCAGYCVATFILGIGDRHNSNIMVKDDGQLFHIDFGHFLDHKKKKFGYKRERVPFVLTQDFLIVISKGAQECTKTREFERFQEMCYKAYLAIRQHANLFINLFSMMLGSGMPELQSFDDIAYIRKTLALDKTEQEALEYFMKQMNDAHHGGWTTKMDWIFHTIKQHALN

[2] = biological target: T2, Phosphatidylinositol 4,5-bisphosphate 3-kinase catalytic subunit beta isoform (Homo sapiens, UniProt P42338); test: Inhibition of human recombinant PI3Kbeta using PIP2 by Kinase-Glo Plus assay
[3] = biological target: Phosphatidylinositol 4,5-bisphosphate 3-kinase catalytic subunit gamma isoform (Homo sapiens, UniProt P48736); test: Inhibition of human recombinant PI3Kgamma using PIP2 by Kinase-Glo Plus assay
[4] = biological target: T3, Phosphatidylinositol 4,5-bisphosphate 3-kinase catalytic subunit delta isoform (Homo sapiens, UniProt O00329); test: Inhibition of human recombinant PI3Kdelta using PIP2 by Kinase-Glo Plus assay
T3 sequence (O00329 whole entry): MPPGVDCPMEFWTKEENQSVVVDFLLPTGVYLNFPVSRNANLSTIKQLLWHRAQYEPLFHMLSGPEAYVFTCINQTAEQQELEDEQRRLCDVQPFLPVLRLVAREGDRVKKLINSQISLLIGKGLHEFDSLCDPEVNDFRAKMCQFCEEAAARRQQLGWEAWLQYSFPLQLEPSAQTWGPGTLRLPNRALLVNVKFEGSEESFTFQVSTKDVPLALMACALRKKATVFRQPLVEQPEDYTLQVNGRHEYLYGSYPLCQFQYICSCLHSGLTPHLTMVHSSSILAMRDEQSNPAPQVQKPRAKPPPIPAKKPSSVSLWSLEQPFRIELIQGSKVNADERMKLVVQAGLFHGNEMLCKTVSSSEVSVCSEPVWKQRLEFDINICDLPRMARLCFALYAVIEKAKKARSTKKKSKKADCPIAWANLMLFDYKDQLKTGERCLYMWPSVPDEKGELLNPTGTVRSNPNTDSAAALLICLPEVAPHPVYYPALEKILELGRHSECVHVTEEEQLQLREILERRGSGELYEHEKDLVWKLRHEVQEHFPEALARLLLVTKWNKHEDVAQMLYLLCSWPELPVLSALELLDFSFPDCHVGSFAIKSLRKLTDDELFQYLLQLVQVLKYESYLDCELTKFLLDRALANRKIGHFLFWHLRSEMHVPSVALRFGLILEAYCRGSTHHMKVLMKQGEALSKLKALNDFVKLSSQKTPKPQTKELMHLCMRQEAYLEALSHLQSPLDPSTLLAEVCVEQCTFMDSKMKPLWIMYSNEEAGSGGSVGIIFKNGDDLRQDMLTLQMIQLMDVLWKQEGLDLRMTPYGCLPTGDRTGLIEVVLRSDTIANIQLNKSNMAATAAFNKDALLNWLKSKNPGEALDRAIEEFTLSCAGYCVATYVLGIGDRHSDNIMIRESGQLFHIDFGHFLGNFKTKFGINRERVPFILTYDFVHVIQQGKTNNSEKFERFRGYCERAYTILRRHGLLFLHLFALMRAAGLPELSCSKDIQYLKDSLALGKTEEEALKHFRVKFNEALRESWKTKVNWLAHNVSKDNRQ

[5] = biological target: T1, Phosphatidylinositol 4,5-bisphosphate 3-kinase catalytic subunit alpha isoform; test: Inhibition of PI3Kalpha mutant human BT474 cells assessed as inhibition of Akt phosphorylation at […] after 2 hrs; format: cell-based; details: bt-474
Target sequence in this assay (P42336 whole entry, looked up, canonical isoform): as the sequence (P42336 whole entry, canonical isoform) above

[6] = biological target: T2, Phosphatidylinositol 4,5-bisphosphate 3-kinase catalytic subunit beta isoform; test: Inhibition of PI3Kbeta in PTEN-null human MDA-MB-468 cells assessed as inhibition of Akt phosphorylation after 2 hrs; format: cell-based
[7] = Lipophilicity, log D of the compound at pH 7.4 by shake-flask method; format: physicochemical; details: buffer
[8] = Intrinsic clearance in cryopreserved human hepatocytes measured per 10^6 cells; format: ADME, cell-based, Hepatocyte; details: read-out: CLH
[9] = Apparent permeability from apical to basolateral side of human Caco2 cells; format: ADME, cell-based; details: Caco-2, read-out: permeability

Sequence of Phosphatidylinositol 4,5-bisphosphate 3-kinase catalytic subunit gamma isoform (P48736 whole entry, canonical isoform): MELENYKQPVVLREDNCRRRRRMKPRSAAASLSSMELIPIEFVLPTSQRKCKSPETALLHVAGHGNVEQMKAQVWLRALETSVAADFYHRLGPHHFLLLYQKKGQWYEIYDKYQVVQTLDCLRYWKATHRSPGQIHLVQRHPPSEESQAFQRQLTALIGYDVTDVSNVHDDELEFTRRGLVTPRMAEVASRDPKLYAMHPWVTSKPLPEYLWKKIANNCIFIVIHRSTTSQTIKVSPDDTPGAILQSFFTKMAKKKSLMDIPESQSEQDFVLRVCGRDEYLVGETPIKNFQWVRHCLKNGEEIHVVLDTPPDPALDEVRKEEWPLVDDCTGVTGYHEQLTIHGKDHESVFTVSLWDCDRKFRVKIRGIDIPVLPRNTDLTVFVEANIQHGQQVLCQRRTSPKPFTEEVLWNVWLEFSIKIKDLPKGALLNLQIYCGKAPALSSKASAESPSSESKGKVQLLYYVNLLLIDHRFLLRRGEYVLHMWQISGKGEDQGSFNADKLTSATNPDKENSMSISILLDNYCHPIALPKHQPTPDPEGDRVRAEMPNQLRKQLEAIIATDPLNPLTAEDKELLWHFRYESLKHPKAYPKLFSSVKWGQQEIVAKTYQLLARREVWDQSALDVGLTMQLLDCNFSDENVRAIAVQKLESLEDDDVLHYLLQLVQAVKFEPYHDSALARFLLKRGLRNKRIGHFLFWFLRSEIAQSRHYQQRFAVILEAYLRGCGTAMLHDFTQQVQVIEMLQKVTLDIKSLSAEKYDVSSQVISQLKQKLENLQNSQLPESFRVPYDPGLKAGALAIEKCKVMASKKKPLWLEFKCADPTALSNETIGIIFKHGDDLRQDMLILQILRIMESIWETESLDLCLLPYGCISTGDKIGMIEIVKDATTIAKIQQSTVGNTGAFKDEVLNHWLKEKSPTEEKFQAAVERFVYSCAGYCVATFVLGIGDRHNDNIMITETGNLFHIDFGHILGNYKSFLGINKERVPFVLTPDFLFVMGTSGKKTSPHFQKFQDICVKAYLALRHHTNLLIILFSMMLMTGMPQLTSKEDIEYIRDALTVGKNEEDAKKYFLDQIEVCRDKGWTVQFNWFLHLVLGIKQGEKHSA
T2 sequence (P42338 whole entry, canonical isoform): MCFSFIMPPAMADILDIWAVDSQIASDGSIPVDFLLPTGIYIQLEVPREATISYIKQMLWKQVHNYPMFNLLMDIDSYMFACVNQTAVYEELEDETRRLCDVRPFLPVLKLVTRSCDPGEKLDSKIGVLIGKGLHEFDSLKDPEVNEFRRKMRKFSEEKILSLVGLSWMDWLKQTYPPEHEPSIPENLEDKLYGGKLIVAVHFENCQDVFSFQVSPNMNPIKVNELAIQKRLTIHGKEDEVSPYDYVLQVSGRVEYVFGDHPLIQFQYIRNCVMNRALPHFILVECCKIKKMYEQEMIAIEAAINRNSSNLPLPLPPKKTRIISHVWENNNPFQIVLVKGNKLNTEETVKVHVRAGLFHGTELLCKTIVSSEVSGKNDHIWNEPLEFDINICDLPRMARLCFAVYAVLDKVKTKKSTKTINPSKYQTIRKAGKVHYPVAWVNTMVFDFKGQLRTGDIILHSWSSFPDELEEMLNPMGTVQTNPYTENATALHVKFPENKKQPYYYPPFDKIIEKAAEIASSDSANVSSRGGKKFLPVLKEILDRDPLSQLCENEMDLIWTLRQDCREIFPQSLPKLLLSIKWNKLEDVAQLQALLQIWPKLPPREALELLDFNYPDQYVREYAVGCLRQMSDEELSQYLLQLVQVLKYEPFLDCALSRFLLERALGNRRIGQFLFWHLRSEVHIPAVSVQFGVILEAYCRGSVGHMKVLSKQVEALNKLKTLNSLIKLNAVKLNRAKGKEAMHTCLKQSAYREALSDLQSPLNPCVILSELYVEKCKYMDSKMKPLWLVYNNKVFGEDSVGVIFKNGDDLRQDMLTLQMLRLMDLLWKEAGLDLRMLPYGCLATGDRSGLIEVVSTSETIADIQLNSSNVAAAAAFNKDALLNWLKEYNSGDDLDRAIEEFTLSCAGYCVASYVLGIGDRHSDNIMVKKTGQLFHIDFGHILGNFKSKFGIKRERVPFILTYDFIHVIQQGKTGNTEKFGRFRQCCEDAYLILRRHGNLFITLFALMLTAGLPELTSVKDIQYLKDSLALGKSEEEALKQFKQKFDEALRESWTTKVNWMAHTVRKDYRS

Structure (SMILES) | IC50 [1] | IC50 [2] | IC50 [3] | IC50 [4] | IC50 [5] | IC50 [6] | logD [7] | hepatocyte CLint [8] | Papp A→B [9]
CC(Nc1cc(F)ccc1F)c1cc(C(=O)N(C)C)cc2c(=O)cc(N3CCOCC3)oc12 (racemic) | 450 nM | 19 nM | 6000 nM | 150 nM | 7000 nM | 60 nM | 1.8 | 6 µL/min/1e6 cells | 12 ×10⁻⁶ cm/s
COc1cc(F)cc(NC(C)c2cc(C(=O)N(C)C)cc3c(=O)cc(N4CCOCC4)oc23)c1 (racemic) | 160 nM | 10 nM | 1600 nM | 61 nM | 1700 nM | 15 nM | 1.9 | < 3 µL/min/1e6 cells | 

More lines, in order of falling IC50 [1], values ahead:

IC50 [1] | IC50 [2] | IC50 [3] | IC50 [4] | IC50 [5] | IC50 [6] | logD [7] | hepatocyte CLint [8] | Papp A→B [9] | Structure (SMILES)
970 nM | 17 nM | 13000 nM | 160 nM | 7400 nM | 132 nM | 2.2 | 7 µL/min/1e6 cells | 31 ×10⁻⁶ cm/s | C[C@@H](Oc1cc(F)cc(F)c1)c1cc(C(=O)N(C)C)cc2c(=O)cc(N3CCOCC3)oc12
230 nM | 11 nM | 830 nM | 90 nM | 6400 nM | 17 nM | 1.8 | < 3 µL/min/1e6 cells | 1 ×10⁻⁶ cm/s | CC(Nc1cc(F)cc(F)c1)c1cc(C(=O)N2CCC(O)CC2)cc2c(=O)cc(N3CCOCC3)oc12 (racemic)
130 nM | 15 nM | 2200 nM | 110 nM | 2900 nM | 49 nM | 2.2 | 6 µL/min/1e6 cells |  | Cc1cc(F)cc(NC(C)c2cc(C(=O)N(C)C)cc3c(=O)cc(N4CCOCC4)oc23)c1 (racemic)
57 nM | 9 nM | 520 nM | 54 nM | 13000 nM | 31 nM | 2.1 | < 3 µL/min/1e6 cells | 0.28 ×10⁻⁶ cm/s | COCCNC(=O)c1cc(C(C)Nc2cc(F)cc(F)c2)c2oc(N3CCOCC3)cc(=O)c2c1 (racemic)
